Tests used:
Assay type in all cases: in vivo
Abutilon theophrasti = test: Herbicidal post-emergence action; settings: 1280 g/ha, visual assessment after ca. 3 weeks vs untreated controls
Description: (§1) Seeds of mono- and dicotyledonous weed plants were sown in plastic pots (double sowings with one species of mono- and one species of dicotyledonous weed plants per pot), in sandy loam, covered with soil and grown under controlled growth conditions. 2 to 3 weeks after sowing, the test plants were sprayed in the single-leaf stage. The compounds according to the invention, formulated in the form of wettable powders (WP) or as emulsifiable concentrates (EC), were sprayed onto the green plant parts as an aqueous suspension or as an emulsion, with the addition of 0.5% of an additive, at an application rate of 600 litres of water per hectare (converted). The test plants were placed in the greenhouse for ca. 3 weeks under optimum growth conditions, and then the effect of the preparations is assessed visually in comparison with untreated controls (herbicidal effect in percent (%): 100% effect = plants have died, 0% effect = as control plants).
as §1, with “(EC), are” for “(EC), were”, “controls (herbicidaleffectinpercent(%):100%effect=plantshavedied,0%effect=ascontrolplants). [formula]” for “controls (herbicidal effect in percent (%): 100% effect = plants have died, 0% effect = as control plants).”

Amaranthus retroflexus [1] = test: Herbicidal post-emergence action; settings: visual assessment after ca. 3 weeks vs untreated controls
Description: as §1
as §1, with “(EC), are” for “(EC), were”, “controls (herbicidaleffectinpercent(%):100%effect=plantshavedied,0%effect=ascontrolplants). [formula]” for “controls (herbicidal effect in percent (%): 100% effect = plants have died, 0% effect = as control plants).”

Poa annua [2] = test: Herbicidal post-emergence action; settings: visual assessment after ca. 3 weeks vs untreated controls
Description: as §1
as §1, with “(EC), are” for “(EC), were”, “controls (herbicidaleffectinpercent(%):100%effect=plantshavedied,0%effect=ascontrolplants). [formula]” for “controls (herbicidal effect in percent (%): 100% effect = plants have died, 0% effect = as control plants).”

Matricaria inodora [3] = test: Herbicidal post-emergence action; settings: visual assessment after ca. 3 weeks vs untreated controls
Description: as §1
as §1, with “(EC), are” for “(EC), were”, “controls (herbicidaleffectinpercent(%):100%effect=plantshavedied,0%effect=ascontrolplants). [formula]” for “controls (herbicidal effect in percent (%): 100% effect = plants have died, 0% effect = as control plants).”

Lolium rigidum [4] = test: Herbicidal post-emergence action; settings: 1280 g/ha, visual assessment after ca. 3 weeks vs untreated controls
Description: as §1
as §1, with “(EC), are” for “(EC), were”, “controls (herbicidaleffectinpercent(%):100%effect=plantshavedied,0%effect=ascontrolplants). [formula]” for “controls (herbicidal effect in percent (%): 100% effect = plants have died, 0% effect = as control plants).”

Digitaria sanguinalis [5] = test: Herbicidal post-emergence action; settings: visual assessment after ca. 3 weeks vs untreated controls
Description: as §1
as §1, with “(EC), are” for “(EC), were”, “controls (herbicidaleffectinpercent(%):100%effect=plantshavedied,0%effect=ascontrolplants). [formula]” for “controls (herbicidal effect in percent (%): 100% effect = plants have died, 0% effect = as control plants).”

Stellaria media [6] = test: Herbicidal post-emergence action; settings: visual assessment after ca. 3 weeks vs untreated controls
Description: as §1
as §1, with “(EC), are” for “(EC), were”, “controls (herbicidaleffectinpercent(%):100%effect=plantshavedied,0%effect=ascontrolplants). [formula]” for “controls (herbicidal effect in percent (%): 100% effect = plants have died, 0% effect = as control plants).”

Veronica persica [7] = test: Herbicidal post-emergence action; settings: visual assessment after ca. 3 weeks vs untreated controls
Description: as §1
as §1, with “(EC), are” for “(EC), were”, “controls (herbicidaleffectinpercent(%):100%effect=plantshavedied,0%effect=ascontrolplants). [formula]” for “controls (herbicidal effect in percent (%): 100% effect = plants have died, 0% effect = as control plants).”

Alopecurus myosuroides [8] = test: Herbicidal post-emergence action; settings: 1280 g/ha, visual assessment after ca. 3 weeks vs untreated controls
Description: as §1
as §1, with “(EC), are” for “(EC), were”, “controls (herbicidaleffectinpercent(%):100%effect=plantshavedied,0%effect=ascontrolplants). [formula]” for “controls (herbicidal effect in percent (%): 100% effect = plants have died, 0% effect = as control plants).”

Kochia scoparia = test: Herbicidal post-emergence action; settings: visual assessment after ca. 3 weeks vs untreated controls
Description: as §1
as §1, with “(EC), are” for “(EC), were”, “controls (herbicidaleffectinpercent(%):100%effect=plantshavedied,0%effect=ascontrolplants). [formula]” for “controls (herbicidal effect in percent (%): 100% effect = plants have died, 0% effect = as control plants).”

Amaranthus retroflexus [9] = test: Herbicidal pre-emergence action; settings: 1280 g/ha, visual grading after ca. 3 weeks vs untreated controls
Description: (§2) Seeds of mono- and dicotyledonous weed plants were sown in plastic pots (double sowings with one species of mono- and one species of dicotyledonous weed plants per pot), in sandy loam, and covered with soil. The compounds according to the invention, formulated in the form of wettable powders (WP) or as emulsifiable concentrates (EC), were applied to the surface of the covering soil as an aqueous suspension or as an emulsion, with the addition of 0.5% of an additive, at an application rate of 600 litres of water per hectare (converted). Following treatment, the pots were placed in a greenhouse and kept under optimum growth conditions for the test plants. The visual grading of the damage to the test plants is carried out after ca. 3 weeks in comparison to untreated controls (herbicidal effect in percent (%): 100% effect = plants have died, 0% effect = as control plants). Seeds of mono- and dicotyledonous weed plants were sown in plastic pots (double sowings with one species of mono- and one species of dicotyledonous weed plants per pot), in sandy loam, and covered with soil. The compounds according to the invention, formulated in the form of wettable powders (WP) or as emulsifiable concentrates (EC), were applied to the surface of the covering soil as an aqueous suspension or as an emulsion, with the addition of 0.5% of an additive, at an application rate of 600 litres of water per hectare (converted). Following treatment, the pots were placed in a greenhouse and kept under optimum growth conditions for the test plants. The visual grading of the damage to the test plants is carried out after ca. 3 weeks in comparison to untreated controls (herbicidal effect in percent (%): 100% effect = plants have died, 0% effect = as control plants).

Poa annua [10] = test: Herbicidal pre-emergence action; settings: visual grading after ca. 3 weeks vs untreated controls
Description: as §2

Matricaria inodora [11] = test: Herbicidal pre-emergence action; settings: 1280 g/ha, visual grading after ca. 3 weeks vs untreated controls
Description: as §2

Lolium rigidum [12] = test: Herbicidal pre-emergence action; settings: 1280 g/ha, visual grading after ca. 3 weeks vs untreated controls
Description: as §2

Stellaria media [13] = test: Herbicidal pre-emergence action; settings: 1280 g/ha, visual grading after ca. 3 weeks vs untreated controls
Description: as §2

Alopecurus myosuroides [14] = test: Herbicidal pre-emergence action; settings: 1280 g/ha, visual grading after ca. 3 weeks vs untreated controls
Description: as §2

Setaria viridis = test: Herbicidal post-emergence action; settings: 1280 g/ha, visual assessment after ca. 3 weeks vs untreated controls
Description: as §1
as §1, with “(EC), are” for “(EC), were”, “controls (herbicidaleffectinpercent(%):100%effect=plantshavedied,0%effect=ascontrolplants). [formula]” for “controls (herbicidal effect in percent (%): 100% effect = plants have died, 0% effect = as control plants).”

Digitaria sanguinalis [15] = test: Herbicidal pre-emergence action; settings: 1280 g/ha, visual grading after ca. 3 weeks vs untreated controls
Description: as §2

Veronica persica [16] = test: Herbicidal pre-emergence action; settings: 1280 g/ha, visual grading after ca. 3 weeks vs untreated controls
Description: as §2

SMILES | herbicidal effect in percent (%), ABUTH (Abutilon theophrasti) [%] | herbicidal effect in percent (%), AMARE (Amaranthus retroflexus [1]; 1280 g/ha) [%] | herbicidal effect in percent (%), POAAN (Poa annua [2]; 1280 g/ha) [%] | herbicidal effect in percent (%), MATIN (Matricaria inodora [3]; 320 g/ha) [%] | herbicidal effect in percent (%), MATIN (Matricaria inodora [3]; 1280 g/ha) [%] | herbicidal effect in percent (%), LOLRI (Lolium rigidum [4]) [%] | herbicidal effect in percent (%), DIGSA (Digitaria sanguinalis [5]; 1280 g/ha) [%] | herbicidal effect in percent (%), STEME (Stellaria media [6]; 320 g/ha) [%] | herbicidal effect in percent (%), STEME (Stellaria media [6]; 1280 g/ha) [%] | herbicidal effect in percent (%), VERPE (Veronica persica [7]; 320 g/ha) [%] | herbicidal effect in percent (%), VERPE (Veronica persica [7]; 1280 g/ha) [%] | herbicidal effect in percent (%), ALOMY (Alopecurus myosuroides [8]) [%] | herbicidal effect in percent (%), KCHSC (Kochia scoparia; 1280 g/ha) [%] | herbicidal effect in percent (%), POAAN (Poa annua [10]; 1280 g/ha) [%] | herbicidal effect in percent (%), MATIN (Matricaria inodora [11]) [%] | herbicidal effect in percent (%), LOLRI (Lolium rigidum [12]) [%] | herbicidal effect in percent (%), STEME (Stellaria media [13]) [%] | herbicidal effect in percent (%), ALOMY (Alopecurus myosuroides [14]) [%] | also measured
O=C(Nc1ncns1)c1cc(Cl)ncc1Cl [Example I-011] | 90 | 100 | 90 | 100 | 100 | 90 | 100 | 90 | 100 | 90 | 100 | 100 | 100 | 100 | 100 | 90 | 90 | 90 | herbicidal effect in percent (%), AMARE (Amaranthus retroflexus [1]; 320 g/ha): 90%; herbicidal effect in percent (%), DIGSA (Digitaria sanguinalis [5]; 320 g/ha): 90%; herbicidal effect in percent (%), KCHSC (Kochia scoparia; 320 g/ha): 90%; herbicidal effect in percent (%), AMARE (Amaranthus retroflexus [9]): 90%
O=C(Nc1ncns1)c1cc(Cl)ncc1OC(F)(F)F [Example 1-012, 2-chloro-N-(1,2,4-thiadiazol-5-yl)-5-(trifluoromethoxy)pyridine-4-carboxamide] | 90 | 100 | 90 | – | 100 | – | – | – | 100 | – | 100 | – | 90 | 90 | – | 100 | – | – | herbicidal effect in percent (%), SETVI (Setaria viridis): 90%
O=C(Nc1ncns1)c1c(Br)cncc1Br [Example I-015] | 100 | 90 | 100 | 100 | 100 | 100 | 100 | 100 | 100 | 100 | 100 | 100 | 100 | 100 | 100 | 90 | 90 | 100 | herbicidal effect in percent (%), POAAN (Poa annua [2]; 320 g/ha): 100%; herbicidal effect in percent (%), POAAN (Poa annua [10]; 320 g/ha): 100%; herbicidal effect in percent (%), DIGSA (Digitaria sanguinalis [15]): 100%; herbicidal effect in percent (%), VERPE (Veronica persica [16]): 100%

Source: patent publication EP4238973A1, “SUBSTITUTED 1,2,4-THIADIAZOLYL ISONICOTINAMIDES, SALTS OR N-OXIDES THEREOF AND THEIR USE AS HERBICIDALLY ACTIVE SUBSTANCES” (Bayer AG, priority 2022, dated 2023)
